Where two headings read alike, the source gives them in different places.
What was measured:
LLC/2 cells = test: 3H-thymidine incorporation, LLC/2; type: cell-based; settings: LLC/2 lung carcinoma cells; less efficiently than on endothelial cells
Experimental: Cells were treated with molecules in complete medium. After 22 h, 1 μCi per well H^3 thymidine was added for 2 hours. Cells are then fixed by 10% trichloroacetic acid and harvested with 0.2N NaOH, 1% SDS. Radioactivity was measured in a beta counter.

3T3-GFP cells = test: Scratch wound closure assay, 3T3-GFP; type: cell-based; settings: wound closure after 24 h, 10% FCS, tested 3.125 μM to 100 μM
Source text: Using this assay, we screened the academic library of the University of Grenoble, which is composed of 1360 original molecules. Setting the threshold of significant responses at 75% of the maximal inhibition, we identified 80 inhibitory molecules. At this stage, we reasoned that molecules that would affect the cytoskeleton dynamics or the adhesion properties of any cell type would be positive in this assay but would not represent good candidates for further development. We thus decided to perform a secondary counterscreen of the first 80 selected compounds on GFP-expressing 3T3 fibroblasts (3T3-GFP) using the same scratch assay. We then focused our interest on the 5 molecules that inhibited more strongly HMEC-GFP than 3T3-GFP wound healing. […] We synthesized a series of 30 analogs and tested them at various concentrations both on HMEC-GFP and 3T3-GFP cells. […] Dansyl and naphthalimide aromatic groups, found in COB223 and COB227 respectively, appeared very efficient. The presence of the diaminomethyl group on dansyl is critical for the activity of COB223 as shown by the lower efficiency of COB235 (IC50 is 8 times higher than that of COB223). COB223 and COB227 contain a tert-butyloxycarbonyl function (BOC group) as a second hydrophobic group. Replacement of BOC by an amino group decreased the efficiency and the specificity (compare 05-102-L-B09 vs 05-06-L-D03, or COB227 vs COB228).
Confluent cell monolayers were wounded with a plastic pipet tip, washed gently with phosphate buffer saline (PBS) and treated with complete media containing molecules, as indicated. Cells were placed at 37°C into the incubator and photographed at indicated times. Quantitation of closure of the monolayer was performed using the NIH Image J program (http://rsbweb.nih.gov/ij/). Results are expressed as percentage of wound closure at t = 24 h as compared to the initial wound at t = 0 h.

MEK phosphorylation = test: Western blot, MEK phosphorylation in HUVEC; type: cell-based, human; settings: 10 ng/mL VEGF-A 15 min, 25 μM COB223
Experimental: (§1) Figure 9 Effect of COB223 on growth factor-induced VEGF-R2, MEK and ERK phosphorylations (A) Serum-starved HUVEC cells were incubated for 15 min in the presence of either 10 ng/mL VEGF-A or 20 ng/mL FGF-2 and in the absence or the presence of 25 μM COB223. The phosphorylations of VEGFR2 on tyrosine 1175 or tyrosine 1214, of MEK and ERK1/2 were then analyzed by Western blot analysis of the cell lysates as described in Material and Methods. Western blots for total VEGFR2, MEK and ERK1/2 were used as loading controls. The blots shown in Figure 9A were obtained in one representative experiment. (B) The hybridization signals observed in 5 similar but independent experiments were quantitated and the ratios between phospho-VEGFR2(Y1175) or (Y1214) and VEGFR2 signals were normalized to the value observed in the absence of COB223. (C) The hybridization signals observed in 5 similar but independent experiments were quantitated and the ratios between phospho-ERK1/2 and ERK1/2 and between phospho-MEK and MEK were normalized to the values observed in the absence of COB223. Additional experiments performed with 10% fetal calf serum (FCS) as a mitogen were included in this analysis. * : p < 0.05; ** : p < 0.01
Serum-starved HUVEC cells were incubated for 15 min in the presence of either 10 ng/mL VEGF-A or 20 ng/mL FGF-2 and in the absence or the presence of indicated concentration of COB223. […]

HMEC-GFP spheroids = test: Sprouting of HMEC-GFP spheroids into collagen gels; type: cell-based; settings: Homo sapiens
Experimental: To prepare spheroids, HMEC-GFP cells were seeded at 3000 cells/well in round-bottom 96-multiwell plates in DMEM 1 g/L glucose (Eurobio, Les Ulis, France) containing 0.25% methylcellulose. 48 h later, the spheroids were collected, transferred into flat-bottom 96-well plates and embedded in collagen gel (1.2 mg/mL type I collagen) prepared in a Iscove's modified Dulbecco's medium, supplemented with FGF-2 (10 ng/mL), 50 U/mL penicillin and 50 μg/mL streptomycin. Treatment with COB223 (10 and 20 μM) started right after spheroids were included in the collagen gels. Sprouting was allowed for 24 h at 37°C. Images were acquired by fluorescence microscopy and analysis of gel invasion was performed using the freeware Image J. Statistical analysis was performed using a Kruskal & Wallis test.
HMEC-GFP cells were developed as spheroids in an Iscove's modified Dulbecco's medium containing 0.2% methylcellulose in round-bottom 96-multiwell plate. Two days later, spheroids were collected and invasion was allowed in a Iscove's modified Dulbecco's medium, supplemented with 1.2 mg/mL collagen I, 50 U/mL Penicillin, 50 μg/mL streptomycin. Molecules (10 or 20 μM) or FGF-2 (10 ng/mL) were added in the preparation before collagen gelification.

ERK1/2 phosphorylation = test: Western blot, ERK1/2 phosphorylation in HUVEC; type: cell-based, human
Experimental: as §1
Figure 10 Effect of PKC inhibitors on PMA-, VEGF- and FGF2-induced ERK phoshorylation (A) Serum-starved HUVEC cells were incubated for 15 min in the presence of 10 ng/mL VEGF-A or 20 ng/mL FGF-2 and in the absence or the presence of 25 μM COB223 or 5 μM Gö6983 and 5 μM Gö6976. The phosphorylation ERK1/2 was then analyzed by Western blot analysis of the cell lysates as described in Material and Methods. Western blots for total ERK1/2 were used as loading controls. (B) Serum-starved HUVEC cells were incubated for 5 min in the presence of 200 nM of PMA and in the absence or the presence of 25 μM COB223 or 5 μM Gö6983 and 5 μM Gö6976. The hybridization signals observed were quantitated and the ratio between phospho-ERK1/2 and ERK1/2 was normalized to the values observed in the absence of COB223. Similar results were obtained in 2 independent experiments.
Serum-starved HUVEC cells were incubated for 15 min in the presence of either 10 ng/mL VEGF-A or 20 ng/mL FGF-2 and in the absence or the presence of indicated concentration of COB223. COB223 was incubated 15 min prior to stimulation. Cells were lysed in RIPA buffer ( Tris HCl pH 7.4 10 mM, NaCl 150 mM, SDS 0.1%, Na Deoxycholate 0.5%, EDTA 1 mM, Triton X100 1% and protease inhibitor cocktail (Sigma) for protein extraction. After fractionation of proteins on a 4–15% SDS-PAGE gel and blotting to a nitrocellulose membrane, immunoblotting detection of proteins was done using indicated antibodies according to manufacturer's instruction.

For `CN(C)c1cccc2c(S(=O)(=O)NCCCN3CCN(CCCNC(=O)OC(C)(C)C)CC3)cccc12` [COB223, tert-Butyl 3-(4-(3-(5-(dimethylamino)naphthalene-1-sulfonamido)propyl)piperazin-1-yl) propylcarbamate], the “effect on cell proliferation” value (LLC/2 cells) was “inhibited”, the IC50 (3T3-GFP cells) was 25 µM and the “VEGF-induced phosphorylation of MEK” value (MEK phosphorylation) was “significantly inhibited”. The inhibition at 10 µM (HMEC-GFP spheroids; 10 μM COB223, 10 ng/ml FGF-2, collagen I gel, read-out: inhibition of FGF-2-stimulated sprouting) was 70%, the inhibition at 10 µM (HMEC-GFP spheroids; 10 μM COB223, collagen I gel, read-out: inhibition of basal sprouting) was 50% and the “VEGF-induced phosphorylation of ERK1/2” value (ERK1/2 phosphorylation; HUVEC, 10 ng/mL VEGF-A 15 min, 25 μM COB223) was “significantly inhibited”. For the same molecule, the “phosphorylation of ERK1/2 induced by the PKC activator PMA” value (ERK1/2 phosphorylation; HUVEC, 200 nM PMA 5 min, 25 μM COB223) was “inhibited”, the “concentration at which inhibition of MAP kinase phosphorylation was detectable” value (ERK1/2 phosphorylation; dose-response study) was 5 µM and the “concentration at which inhibition of MAP kinase phosphorylation was statistically significant” value (ERK1/2 phosphorylation; dose-response study) was 20 µM.

From publication PMC4467156, “A new chemical inhibitor of angiogenesis and tumorigenesis that targets the VEGF signaling pathway upstream of Ras” (Oncotarget, 2015)
